The values below come from US20100093536A1, “CONTROL OF GRASSY WEEDS WITH VINYLGLYCINES AND VINYLGLYCINE-PRODUCING ORGANISMS” (THE STATE OF OREGON ACTING BY AND THROUGH THE STATE BOARD …, priority 2008, published 2010).

Data set [1] concerns Poa annua seeds. Briefly: Soil-based test with established perennial ryegrass seedlings: germination of Poa annua seeds. Particulars: sprayed twice with 50 mL in 0.1% Tween 20, evaluated 12 days after first treatment. Format: in vivo. As for the experimental part: (§1) Soil-based tests for GAF activity were performed as follows: Woodburn sandy loam obtained from a Willamette Valley site was used in all soil-based experiments. The soil was dried for two days at 100° F. and screened through a ⅛-inch mesh prior to use. All flats were lined with black ground cloth. Small half-flats (25×25 cm) were filled with 1200 grams of soil. Larger flats (25×50 cm) were filled with 2500 grams of soil. The soil in the flats was fully saturated with water and left to drain in a greenhouse mist chamber for two days prior to seeding.
(§2) Soil-based tests involving both Poa annua seeds and established perennial ryegrass (Lolium perenne) seedlings were conducted in full sized flats (25×50 cm). After preparation of the soil as described above, five rows of perennial ryegrass seed (0.19 grams seed/row) were planted parallel to the short axis of the flat. The flats were placed in a mist chamber in the greenhouse for one week, and then transferred to a greenhouse bench where they were watered once or twice daily (as needed) with a fogging nozzle for the next 13 days. The ryegrass seedlings were fertilized at the end of the first week on the greenhouse bench. […] The treatments were evaluated and photographic records taken 12 days after the initial treatment (14 days from seeding with Poa annua). […]

Data set [2] relates to established perennial ryegrass (Lolium perenne) seedlings. Put plainly: Soil-based test with established perennial ryegrass seedlings: tolerance of the ryegrass. Format: in vivo. The settings on record: at a concentration that arrested germination of Poa annua seeds. As for the experimental part: as §1, §2
For data set [3], the system named is Poa annua seeds. Briefly: Soil-based test for GAF activity, Poa annua only. Particulars: sprayed twice with 50 mL in 0.1% Tween 20, evaluated 12 days after first treatment. Format: in vivo. As for the experimental part:
as §1
Soil-based tests involving only Poa annua (annual bluegrass) were conducted in half-flats. A frame covering ½- inch around the margins of the flat was placed on the soil surface, and the soil area within the frame was seeded with 0.3 grams of Poa annua seeds (leaving a ½-inch unseeded border). The seeds were sprayed lightly with distilled water and placed in a growth chamber set at 20° C. with a photoperiod consisting of 8-hour days (50 μEinsteins) and 16-hour nights. […] The treatments were evaluated and photographic records taken 12 days after the initial treatment (14 days from seeding). […]
The effect of AVG on germination of seeds of Poa annua also was determined in a soil-based system using the protocol previously described. […]
The effect of AOA on the germination of Poa annua also was determined in a soil-based system. […]

The test system of data set [4] is Poa annua (annual bluegrass) seeds. Briefly: Standard GAF Bioassay System (Standard Poa Bioassay), seed germination scored after 7 days. Format: in vivo. On the set-up: key to GERMINATION SCORE IN THE POA BIOASSAY (±Standard Error of the Mean) / GERMINATION SCORE (±Standard Error of the Mean): germination score, 0 = no germination to 4.0 = first true leaf emerged. The settings on record: for GAF-like activity in the Standard Poa Bioassay System, in words: pure compounds; for GERMINATION SCORE: purified GAF. On the procedure: The seed of Poa annua (or other test seeds) were surface-sterilized by placing two to five grams of seeds in a 50 ml glass beaker, covering the seeds with a 50% (v/v) solution of H2SO4, and stirring vigorously for 5 minutes. The seed/acid mixture was filtered through a Gooch crucible and repeatedly rinsed with tap water to remove residual acid. The seeds were then placed in a beaker and covered with bleach (Clorox®, NaOCl, 5.25%) containing 1% (v/v) polyoxethylene sorbitan monolaurate (Tween®-20). The seeds were stirred for 5 minutes and then repeatedly rinsed with sterile deionized water and placed in a sterile Petri dish. The seeds were used immediately while wet or dried (spread in a thin layer and allowed to dry under a laminar flow hood with the Petri dish lid ajar for 4 to 8 hours) to prevent premature germination.
Bioassays for GAF activity were performed with Poa annua (annual bluegrass) seeds unless otherwise indicated. For each concentration of each test solution, 200 μl aliquots of solution were distributed to each of three wells of a sterile Costar® forty-eight well tissue culture plate (Corning® Costar® Number 3548). Three surface-sterilized Poa annua seeds were aseptically transferred to each well and submerged in the liquid, providing a total of nine observations for each concentration of each solution tested. The lid of the tissue culture plate was sealed with Parafilm® and the plate was placed in a germinator at 20° C. (8 hour day length at a light intensity of 50 μmol/m^2/s, 16 hour dark period) for seven days. Germination was scored on the basis of the following four-point system: • Score 0: No visible signs of germination. • Score 0.5: Seed coat split but plumule and coleorhiza are not visible. • Score 1.0: Plumule and coleorhiza visible. Plumule chlorotic and shorter than length of seed. Root not yet visible. • Score 1.5: Plumule still shorter than length of seed, but root is clearly visible. • Score 2.0: Plumule approximately equal in length to the seed. Root elongated. • Score 2.5: Plumule obviously longer than length of seed. First true leaf still enclosed in coleoptile. • Score 3.0: First true leaf emerged from coleoptile and green. Emerged portion of the leaf is obviously shorter than the coleoptile. • Score 3.5: First true leaf emerged from coleoptile and green. Emerged portion of the leaf is approximately equal in length to the coleoptile. • Score 4.0: First true leaf emerged from coleoptile and green. Emerged portion of the leaf is obviously longer than the coleoptile.

The test system of data set [5] is seeds of grassy weeds and cultivated grasses. Briefly: Germination arrest / herbicidal activity against grassy weeds (general statements). The settings on record: in vivo.
A short description of data set [6]: Solubility of GAF in organic solvents. Format: physicochemical. On the procedure: Further characterization of GAF described its size and solubility, as well as the stability of its activity over time and under varying temperature and pH conditions (see Banowetz et al., Biological Control, 50: 103-110, 2009; which is hereby incorporated by reference). […] GAF activity in culture filtrates stored at 4° C. diminishes over time, with 10% activity remaining after 17 months.
We have termed this compound a Germination Arrest Factor (GAF), and we have identified this compound as 2-amino-4-formylaminooxy-but-3-enoic acid (also called 2-amino-4-formylaminooxyvinylglycine). The presence of this compound in culture filtrates of Pseudomonas can be assessed by extraction and chromatography procedures described in Example 1. […] Moreover, GAF has particular chromatographic properties that allow it to be detected in the culture filtrates of GAF-producing organisms as a distinctive ninhydrin-staining band located at a particular position on thin-layer chromatography plates when the extraction and chromatography protocols specified here are followed. […] The presence of a DNA sequence that codes for an open reading frame that is distinctive for a particular putative formyl-transferase.

Data set [7] deals with seeds of cereals (wheat and barley) and dicots. Put plainly: Germination of seeds of cereals and dicots in presence of GAF. Format: in vivo. The settings on record: compared with seeds of grass species.
Another data set deals with Established seedlings. Put plainly: Sensitivity of established seedlings to GAF. Particulars: in vivo.
The conditions of data set [8]: cited from earlier work.
[9] abbreviates: exposure limited to a few hours.

Entries after “also recorded” stand apart in the source; their conditions may differ.

Consider `NOCC(=O)O` [AOA, 2-Aminooxyacetic acid, reference compound], for which the “germination of Poa annua seeds seeded between rows of established ryegrass” value with Poa annua seeds [1] was “arrested as expected”. Further, the “effect on established perennial ryegrass seedlings” value in [2] is “some damage was evident”. Further, the “effect on germination of seeds of Poa annua in a soil-based system” value in the data set with Poa annua seeds [3] was “arrested germination”. The “GERMINATION SCORE IN THE POA BIOASSAY (±Standard Error of the Mean)” value in [4] (concentration tested 0.03 mM) was determined as 2.5 ± 0.1; in [4] (concentration tested 0.1 mM), 1.7 ± 0.1; in [4] (concentration tested 0.3 mM), 1.2 ± 0.1; in data set [4] (concentration tested 1.0 mM), 1.0 ± 0.0; in data set [4] (concentration tested 3.0 mM), 1.0 ± 0.0; in [4] (concentration tested 10.0 mM), 1.0 ± 0.0. Further, in data set [4] (concentration tested 30.0 mM), the “GERMINATION SCORE IN THE POA BIOASSAY (±Standard Error of the Mean)” value is reported as 0.9 ± 0.1. Besides, the “GAF-like activity in the Standard Poa Bioassay System, in words” value in data set [4] is “arrested the germination”.

`NCCOC=CC(N)C(=O)O` (stereo not drawn) [AVG, 2-amino-4-aminoethoxy-but-3-enoic acid, reference compound]: the “germination of Poa annua seeds seeded between rows of established ryegrass” value with Poa annua seeds [1] is given as “completely arrested germination”. Also, in data set [2], the “effect on established perennial ryegrass seedlings” value is “little if any effect”. Further, in the data set with Poa annua seeds [3], the “effect on germination of seeds of Poa annua in a soil-based system” value is given as “arrest germination”. For the same molecule, the “GERMINATION SCORE IN THE POA BIOASSAY (±Standard Error of the Mean)” value in data set [4] (concentration tested 0.03 mM) stood at 2.3 ± 0.1; in [4] (concentration tested 0.1 mM) it was 1.3 ± 0.1; in data set [4] (concentration tested 0.3 mM), 1.0 ± 0.0; in data set [4] (concentration tested 1.0 mM) it was 1.0 ± 0.0; in data set [4] (concentration tested 3.0 mM) it was 1.0 ± 0.0; in data set [4] (concentration tested 10.0 mM) it was 1.0 ± 0.0. In addition, the “GERMINATION SCORE IN THE POA BIOASSAY (±Standard Error of the Mean)” value in data set [4] (concentration tested 30.0 mM) is 0.9 ± 0.1. Also, the “GAF-like activity in the Standard Poa Bioassay System, in words” value in data set [4] is reported as “arrested the germination”.

For `NC(/C=C/ONC=O)C(=O)O` (stereo not drawn) [GAF, 2-amino-4-formylaminooxy-but-3-enoic acid], the “activity against grassy weeds, in words” value in data set [5] is “irreversibly arrests the germination”. In addition, in [6], the “solubility in organic solvents” value is “insoluble or sparingly soluble in organic solvents; also recorded: insoluble in organic solvents that are immiscible in water”. The “germination of seeds of cereals (wheat and barley) and dicots” value in [7] is “much less sensitive to GAF”. Further, the “POA BIOASSAY SCORES (±Standard Error of the Mean)” value in data set [4] (GAF Conc. 2X (relative to culture filtrate), partially purified GAF, metal 0 μM) worked out at 1.00 ± 0.00. Moreover, the “activity of GAF in arresting germination in the presence of copper ions” value in [4] (appropriate concentrations of copper ions) is “greatly reduced”. The “GERMINATION SCORE” value stood at 1.00 in [4] (pooled Sephadex G15 fractions, Undiluted Pooled Volume (100%)); 1.92 in data set [4] (1.25% Pooled Volume Concentration); 1.00 in [4] (2.5% Pooled Volume Concentration); 1.00 in data set [4] (5% Pooled Volume Concentration); 1.00 in data set [4] (10% Pooled Volume Concentration). Besides, the “sensitivity of established seedlings to GAF” value in the data set on Established seedlings is on record as “little if any sensitivity”. The GAF activity remaining in data set [8] (culture filtrates stored at 4° C., after 17 months) is recorded as 10%. Further, in [8] (setting [9]), the “activity under basic as well as acidic conditions” value is on record as “remains active”. Besides, the “temperature at which GAF remains active” value in [8] (setting [9]) was “up to 65 °C”.
